Consider four compounds from publication PMC12203525, “The insight into the biology of five homologous lectins produced by the entomopathogenic bacterium and nematode symbiont Photorhabdus laumondii” (Glycobiology, 2025).

Structures are written as SMILES. Read-outs that look alike come from different tables or passages of the source. Bounds are passed on as bounds.

Test [1] deals with T1, PLL4 (Photorhabdus laumondii subsp. laumondii, UniProt Q7N8I6). Put plainly: Glycan microarray screening (634 saccharide ligands). The format is binding, Photorhabdus laumondii subsp. laumondii TT01. The settings on record: DyLight488-labelled PLL4, 200 μg/mL. How it is done: Lectins were fluorescently labelled with DyLight 488 according to the manufacturer’s instructions and the unbound dye was extensively dialyzed out of the protein solution. The microarray chip (Semiotik LLC, Moscow, Russia, batch OSPS280715) containing 634 saccharide ligands, each in 6 replicates, was treated with PBS (137 mM NaCl, 2.7 mM KCl, 8 mM Na2HPO4, […], pH 7.4) with added 0.1% Tween-20 for 15 min. The labelled proteins (200 μg/mL) were then separately applied to the chip surface and incubated in a humidity chamber at 37 °C for 1 h. After the incubation, the unbound protein was washed out with PBS containing 0.05% Tween-20 and deionized water. The chip was dried by airflow and scanned using an InnoScan1100 AL (Innopsys, Carbonne, France) with a 488 nm laser. The data were analyzed with the software Mapix 8.2.2 and an online glycan chip converter (Semiotic, https://rakitko.shinyapps.io/semiotik).

In test [2] the test system is PLL2. Also on record: method as in Faltinek et al. 2019; Fujdiarová et al. 2021. The settings on record: inhibition of PLL2 binding to immobilized MGMR, ref Faltinek et al. 2019, Fujdiarová et al. 2021, cited from earlier work.
The target in test [3] is PLL2. Also on record: method as in Fujdiarová et al, 2021, Faltinek et al, 2019. As to conditions: ref Fujdiarová et al, 2021, Faltinek et al, 2019, cited from earlier work; for Kd: ITC; for interaction with the sugar in ITC (in words): PLL2.
The target in test [4] is PLL3. On the set-up: method as in Fujdiarová et al, 2021, Faltinek et al, 2019. As to conditions: ref Fujdiarová et al, 2021, Faltinek et al, 2019, cited from earlier work; for Kd: ITC; for interaction with the sugar in ITC (in words): PLL3.
Test [5] relates to PLL3. Also on record: method as in Faltinek et al. 2019; Fujdiarová et al. 2021. As to conditions: inhibition of PLL3 binding to immobilized MGMR; ref Faltinek et al. 2019; Fujdiarová et al. 2021; cited from earlier work.
The next test has as its target PLL5 (Photorhabdus laumondii subsp. laumondii, UniProt Q7N8I5). In words: Isothermal titration calorimetry (ITC). As to conditions: for KD: ITC; for interaction with the sugar in ITC (in words): PLL5. The format is binding, Photorhabdus laumondii subsp. laumondii TT01. How it is done: (§1) ITC experiments were performed using an Auto-ITC200 calorimeter or Automated PEAQ-ITC calorimeter (both Malvern Panalytical, Malvern, UK). Measurements were carried out at 25 °C in the Tris buffer. Before the analyses, lectins were extensively dialyzed against the Tris buffer and the dialysate was used to dissolve ligands. The protein (0.1 mM or 0.2 mM) in the cell was titrated with 2 μL injections of the ligand (20 mM or 40 mM). […] Experiments for each interacting ligand were carried out in triplicates. Integrated heat effects were evaluated by nonlinear regression using a single-site binding model in Origin 7 (OriginLab, Northampton, USA) ([Wiseman et al. 1989]). Triplicate measurements were fitted simultaneously using a global fit approach. Due to the low affinity of the interaction, the binding stoichiometry was fixed during the fitting.
A general note: Isothermal titration calorimetry measures the heat released or taken up as one component is titrated into another.

Another test addresses PLL (Photorhabdus laumondii subsp. laumondii, UniProt Q7N8J0). In words: Isothermal titration calorimetry (ITC). The format is binding, Photorhabdus laumondii subsp. laumondii TT01. The settings on record: for KD: ITC. How it is done: as §1
For test [6], the target named is T1, PLL4. Put plainly: Isothermal titration calorimetry (ITC). It is filed as binding, Photorhabdus laumondii subsp. laumondii TT01. As to conditions: for KD: ITC; for interaction with the sugar in ITC (in words): PLL4. How it is done: as §1
[7] abbreviates: PLL2, stoichiometry N fixed to 4.
Setting [8] is: PLL3, stoichiometry N fixed to 2.
Setting [9] is: PLL3, stoichiometry N fixed to 4.
[10] abbreviates: PLL3, stoichiometry N fixed to 6.
The mark [11] stands for this setting: PLL3, stoichiometry N fixed to 8.
The mark [12] stands for this setting: PLL5, stoichiometry N fixed to 2.
Setting [13] is: PLL5, stoichiometry N fixed to 4.
[14] abbreviates: PLL5, stoichiometry N fixed to 6.
[15] abbreviates: PLL5, stoichiometry N fixed to 8.
Setting [16] is: PLL4, stoichiometry N fixed to 2.
Setting [17] is: PLL4, stoichiometry N fixed to 4.
The mark [18] stands for this setting: PLL4, stoichiometry N fixed to 6.
The mark [19] stands for this setting: PLL4, stoichiometry N fixed to 8.

By IC50 is commonly meant the point on the concentration scale where inhibition reaches its midpoint. Usually Kd stands for the free concentration of one partner at which half of the binding sites on the other are occupied at equilibrium, for simple one-to-one binding.

Chain of PLL (Q7N8J0 entry or part of it): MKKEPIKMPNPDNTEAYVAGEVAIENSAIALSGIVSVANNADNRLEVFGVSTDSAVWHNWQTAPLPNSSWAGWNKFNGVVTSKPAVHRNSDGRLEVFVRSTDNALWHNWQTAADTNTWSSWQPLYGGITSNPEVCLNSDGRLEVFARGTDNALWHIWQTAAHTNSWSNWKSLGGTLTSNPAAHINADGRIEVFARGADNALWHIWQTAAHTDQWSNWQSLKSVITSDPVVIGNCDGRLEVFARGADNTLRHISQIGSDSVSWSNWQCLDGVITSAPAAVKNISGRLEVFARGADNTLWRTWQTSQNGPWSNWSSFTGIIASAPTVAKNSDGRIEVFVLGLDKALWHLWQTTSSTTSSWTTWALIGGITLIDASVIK
Chain of PLL5 (Q7N8I5 entry or part of it): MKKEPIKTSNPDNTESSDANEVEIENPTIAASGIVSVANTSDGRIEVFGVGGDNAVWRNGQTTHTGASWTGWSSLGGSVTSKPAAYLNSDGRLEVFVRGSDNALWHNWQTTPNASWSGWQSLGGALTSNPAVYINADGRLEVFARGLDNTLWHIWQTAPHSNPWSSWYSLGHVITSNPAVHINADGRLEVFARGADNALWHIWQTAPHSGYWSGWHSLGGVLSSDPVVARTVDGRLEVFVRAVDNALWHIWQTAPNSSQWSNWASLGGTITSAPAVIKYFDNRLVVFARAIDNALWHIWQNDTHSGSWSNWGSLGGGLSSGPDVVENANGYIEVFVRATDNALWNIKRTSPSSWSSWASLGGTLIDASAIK
T1 sequence (Q7N8I6 entry or part of it): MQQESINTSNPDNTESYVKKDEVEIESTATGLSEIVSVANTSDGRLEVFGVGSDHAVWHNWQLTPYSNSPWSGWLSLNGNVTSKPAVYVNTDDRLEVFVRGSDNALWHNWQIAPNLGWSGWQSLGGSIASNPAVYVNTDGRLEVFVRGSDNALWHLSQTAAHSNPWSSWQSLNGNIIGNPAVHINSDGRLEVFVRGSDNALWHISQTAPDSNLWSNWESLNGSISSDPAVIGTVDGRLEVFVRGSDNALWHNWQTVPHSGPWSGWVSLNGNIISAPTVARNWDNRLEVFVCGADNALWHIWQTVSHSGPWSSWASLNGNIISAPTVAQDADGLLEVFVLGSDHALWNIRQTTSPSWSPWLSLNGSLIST

For the compound `OC[C@H]1O[C@@H](O[C@H]2[C@H](O)[C@@H](O)C(O)O[C@@H]2CO)[C@H](O)[C@@H](O)[C@H]1O` (mixture of isomers) [lactose], the “glycan array binding (in words)” value at PLL4 [1] was “recognized”.
As to `CC(=O)N[C@@H]1[C@@H](O)[C@H](O[C@@H]2O[C@H](CO)[C@H](O)[C@H](O)[C@H]2O[C@@H]2O[C@H](C)[C@H](O)[C@H](O)[C@H]2O)[C@@H](CO)O[C@H]1O` [D-Fucβ1-2-D-Galβ1-4-D-GlcNAcβ], on PLL4 [1], the “glycan array binding (in words)” value is recorded as “recognized”.
As to `O=C[C@H](O)[C@@H](O)[C@@H](O)[C@H](O)CO` [D-Gal, D-galactose], the IC50 entry with PLL2 [2] was “not PLL2”; in the test on PLL2 [2] (read-out: IC50), > 100000 µM; in the test with PLL3 [5], “inhibited only the binding of PLL3”. Besides, the Kd on PLL2 [3] (PLL2, stoichiometry N fixed to 2) is 500 ± 20 µM; on PLL2 [3] (setting [7]), 400 ± 30 µM; on PLL2 [3] (PLL2, stoichiometry N fixed to 6), 300 ± 40 µM; on PLL2 [3] (PLL2, stoichiometry N fixed to 8), 300 ± 60 µM; on PLL3 [4] (setting [8]), 3000 ± 60 µM; at PLL3 [4] (setting [9]), 2700 ± 140 µM. The Kd at PLL3 [4] (setting [10]) is 2500 ± 130 µM; at PLL3 [4] (setting [11]) it was 2200 ± 60 µM. Besides, the “interaction with the sugar in ITC (in words)” value in the test with PLL2 [3] is “interacted”; in the test with PLL3 [4] it was “interacted”; on PLL5, “did not bind these sugars significantly”; at PLL it was “did not bind these sugars significantly”; at PLL4 [6], “did not bind these sugars significantly”. The KD result at PLL5 (setting [12]), on PLL5 (setting [13]), on PLL5 (setting [14]), on PLL5 (setting [15]), at PLL (stoichiometry N fixed to 2) and on PLL (stoichiometry N fixed to 4) was “No int” each time. The KD entry on PLL (stoichiometry N fixed to 6), at PLL (stoichiometry N fixed to 8), at PLL4 [6] (setting [16]), on PLL4 [6] (setting [17]), on PLL4 [6] (setting [18]) and at PLL4 [6] (setting [19]) was “No int” throughout.
As to `OC[C@H]1OC(O)[C@H](O)[C@@H](O)[C@@H]1O` (stereo partly drawn) [D-Glc], the Kd on PLL2 [3] (setting [7]) was 3600 ± 210 µM; at PLL3 [4] (setting [8]), 4000 ± 120 µM; at PLL3 [4] (setting [9]), 3600 ± 80 µM; at PLL3 [4] (setting [10]), 3300 ± 70 µM; at PLL3 [4] (setting [11]) it was 3100 ± 110 µM. The “interaction with the sugar in ITC (in words)” value with PLL2 [3] was “interacted”; in the test with PLL3 [4], “interacted”; at PLL5, “did not bind these sugars significantly”; on PLL, “did not bind these sugars significantly”; on PLL4 [6], “did not bind these sugars significantly”. Besides, the KD entry at PLL5 (setting [12]), on PLL5 (setting [13]), on PLL5 (setting [14]), at PLL5 (setting [15]), at PLL (stoichiometry N fixed to 2) and on PLL (stoichiometry N fixed to 4) was “No int” each time. For the same compound, the KD entry on PLL (stoichiometry N fixed to 6), on PLL (stoichiometry N fixed to 8), at PLL4 [6] (setting [16]), at PLL4 [6] (setting [17]), on PLL4 [6] (setting [18]) and at PLL4 [6] (setting [19]) was “No int” each time.
